The values below come from patent US20250320213A1, “Nitrogen-Containing Heterocyclic Compounds” (Pfizer Inc., priority 2024, published 2025).

What is called EC50 is the concentration at which the effect is half-maximal. As a reminder, the IC50 is the midpoint of a concentration-inhibition curve.

Where two headings read alike, the source gives them in different places.

One assay deals with T1, STAT6 (Homo sapiens, UniProt P42226).
T1 construct: stably transfected HaCaT keratinocyte cell line, which expresses NanoLuc luciferase reporter gene under the transcriptional control of the STAT6 responsive promoter; endogenous in cells; host or cells: HaCaT keratinocyte reporter cell line (stably transfected with a NanoLuc reporter)
T1 sequence (P42226 1-847): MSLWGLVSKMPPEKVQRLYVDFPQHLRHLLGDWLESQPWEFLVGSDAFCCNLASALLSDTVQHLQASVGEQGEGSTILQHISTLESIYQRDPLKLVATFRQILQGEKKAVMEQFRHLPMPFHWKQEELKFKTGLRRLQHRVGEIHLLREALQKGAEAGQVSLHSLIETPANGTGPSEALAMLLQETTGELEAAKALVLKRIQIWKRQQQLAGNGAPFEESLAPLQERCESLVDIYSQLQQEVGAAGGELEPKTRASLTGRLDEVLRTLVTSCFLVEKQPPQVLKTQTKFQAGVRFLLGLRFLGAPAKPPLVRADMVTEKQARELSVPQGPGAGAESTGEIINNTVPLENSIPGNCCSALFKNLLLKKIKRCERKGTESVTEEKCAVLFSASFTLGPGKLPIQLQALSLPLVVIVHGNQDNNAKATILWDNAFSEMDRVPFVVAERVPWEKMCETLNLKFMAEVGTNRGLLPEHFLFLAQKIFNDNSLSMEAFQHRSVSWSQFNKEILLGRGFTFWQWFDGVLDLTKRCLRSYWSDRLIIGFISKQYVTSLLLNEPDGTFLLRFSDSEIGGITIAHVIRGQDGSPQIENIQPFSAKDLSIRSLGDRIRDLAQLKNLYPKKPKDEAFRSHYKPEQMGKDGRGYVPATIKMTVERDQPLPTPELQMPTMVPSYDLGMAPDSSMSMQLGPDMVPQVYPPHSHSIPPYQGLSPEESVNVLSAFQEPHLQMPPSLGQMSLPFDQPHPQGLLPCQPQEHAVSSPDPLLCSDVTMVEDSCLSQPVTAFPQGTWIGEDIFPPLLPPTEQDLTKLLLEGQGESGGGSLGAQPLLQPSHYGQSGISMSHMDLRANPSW
As to the kind of experiment: STAT6 Reporter Luciferase Assay (IL-13 stimulated HaCaT keratinocyte NanoLuc reporter cells). It is filed as cell-based. The note with it: read-out: Reporter EC50. In a few lines: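 HaCaT cells stably carrying a NanoLuc reporter driven by the STAT6-responsive IL-13Ra2 promoter were preincubated with compounds for 2 h at 37 °C in 2% FBS medium. Cells were then stimulated with 0.12 nM IL-13 for 4 h, and luminescence was read after Nano-Glo substrate. Compounds ran as 11-point 4-fold dilutions in duplicate.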

The subject of assay [1] is CCL17 secretion in peripheral human whole blood. As to the kind of experiment: Human Whole Blood (HWB) CCL17 TR-FRET Assay (IL-13 stimulated CCL17 secretion). Type of assay: cell-based. In a few lines:
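Heparinized peripheral human whole blood was preincubated with compound (11-point, 3-fold series, duplicate) for 2 h at 37 °C, then stimulated with IL-13 at 10 ng/mL final for 48 h at 37 °C. Secreted CCL17 in the serum was quantified by TR-FRET sandwich immunoassay (665/615 nm ratio, 16 h RT); IC50 derived.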
In general terms: TR-FRET usually uses a lanthanide donor and a delayed reading to cut background.

[2] abbreviates: STAT6 NanoLuc luciferase reporter, IL-13 stimulated HaCaT keratinocyte cells.
The mark [3] stands for this setting: Homo sapiens, 48 h, inhibition of CCL17 secretion in human whole blood, 10 ng/mL IL13, 48 hours.
[4] abbreviates: IL-13 stimulated HaCaT STAT6 NanoLuc reporter cells.
[5] abbreviates: Homo sapiens, 48 h, human whole blood, IL-13 stimulated.
[6] abbreviates: Homo sapiens, 48 h, human whole blood, 10 ng/mL IL13, 48 hours.

On to `CC(C)n1nc(C(=O)NCc2ccc(NC(=O)NCC3CCOC3)cc2)c2c1CCN(c1ccc(C(=O)N(C)C)cn1)C2` (racemic) [Example 155, rac-(R)-5-(5-(dimethylcarbamoyl)pyridin-2-yl)-1-isopropyl-N-(4-(3-((tetrahydrofuran-3-yl)methyl)ureido)benzyl)-4,5,6,7-tetrahydro-1H-pyrazolo[4,3-c]pyridine-3-carboxamide], for which, on STAT6 (setting [2]), the EC50 was 0.012 µM. In assay [1] (setting [3]), this molecule displayed an IC50 of 0.141 µM.

`CC(C)n1nc(C(=O)NCc2ccc(NC(=O)N(C)C)cc2)c2c1[C@H](C)CN(c1ccc(C(=O)N(C)C)cn1)C2` (single isomer, unassigned) [Example 112]: at STAT6 (setting [2]), the EC50 worked out at 0.015 µM. In assay [1] (setting [3]), this molecule came in with an IC50 of 0.078 µM.

With `CC(C)n1nc(C(=O)NCc2ccc(NC(=O)N(C)C)cc2)c2c1CCN(c1ccc(C(=O)N3CCc4c(ncn4C4CC4)C3)cn1)C2` [Example 420, 5-(5-(1-cyclopropyl-4,5,6,7-tetrahydro-1H-imidazo[4,5-c]pyridine-5-carbonyl)pyridin-2-yl)-N-(4-(3,3-dimethylureido)benzyl)-1-isopropyl-4,5,6,7-tetrahydro-1H-pyrazolo[4,3-c]pyridine-3-carboxamide], at STAT6 (setting [4]), the EC50 was 0.017 µM. Besides, half-maximal inhibition in assay [1] (setting [5]) (IC50) was put at 0.125 µM.

As for `CC(C)n1nc(C(=O)NCc2ccc(C(N)=O)cc2)c2c1[C@@H](C)CN(c1ncc(N3CCCC3=O)cn1)C2` [Example 489, (S)-N-(4-carbamoylbenzyl)-1-isopropyl-7-methyl-5-(5-(2-oxopyrrolidin-1-yl)pyrimidin-2-yl)-4,5,6,7-tetrahydro-1H-pyrazolo[4,3-c]pyridine-3-carboxamide], the EC50 on STAT6 (setting [4]) worked out at 0.018 µM. For the same molecule, in assay [1] (setting [5]), half-maximal inhibition (IC50) was put at 0.017 µM.

Consider `CC(C)n1nc(C(=O)NCc2ccc(NC(=O)N(C)C)cc2)c2c1[C@@H](C)CN(c1ncc(C(=O)N3Cc4cccnc4C3)cn1)C2` [Example 346, (S)-5-(5-(6,7-dihydro-5H-pyrrolo[3,4-b]pyridine-6-carbonyl)pyrimidin-2-yl)-N-(4-(3,3-dimethylureido)benzyl)-1-isopropyl-7-methyl-4,5,6,7-tetrahydro-1H-pyrazolo[4,3-c]pyridine-3-carboxamide], for which, on STAT6 (setting [4]), the EC50 is 0.002 µM. The same molecule registered an IC50 in assay [1] (setting [5]) of 0.013 µM.

For `CC(C)n1nc(C(=O)NCc2ccc(NC(=O)N3CCNCC3)cc2F)c2c1[C@@H](C)CN(c1ccc(C(=O)N(C)C)cc1)C2` [Example 589, (S)-5-(4-(dimethylcarbamoyl)phenyl)-N-(2-fluoro-4-(piperazine-1-carboxamido)benzyl)-1-isopropyl-7-methyl-4,5,6,7-tetrahydro-1H-pyrazolo[4,3-c]pyridine-3-carboxamide], on STAT6 (setting [4]), the EC50 stood at 0.003 µM. The molecule further returned an IC50 in assay [1] (setting [6]) of 0.019 µM.

`CNC(=O)c1ccc(CNC(=O)c2nn(C(C)C)c3c2CN(c2ccc(C(=O)N(C)C)cn2)[C@@H](C)C3)cc1` [Example 540, (S)-5-(5-(dimethylcarbamoyl)pyridin-2-yl)-1-isopropyl-6-methyl-N-(4-(methylcarbamoyl)benzyl)-4,5,6,7-tetrahydro-1H-pyrazolo[4,3-c]pyridine-3-carboxamide]: the EC50 on STAT6 (setting [4]) was 0.027 µM. The molecule further gave an IC50 in assay [1] (setting [6]) of 0.076 µM.

`CNC(=O)Nc1ccc(CNC(=O)c2nn(C(C)C)c3c2CN(c2ncc(N4CCCC4=O)cn2)C[C@@H]3C)cc1` [Example 481, (S)-1-isopropyl-7-methyl-N-(4-(3-methylureido)benzyl)-5-(5-(2-oxopyrrolidin-1-yl)pyrimidin-2-yl)-4,5,6,7-tetrahydro-1H-pyrazolo[4,3-c]pyridine-3-carboxamide]: at STAT6 (setting [4]), the EC50 was 0.001 µM. Further, in assay [1] (setting [5]), half-maximal inhibition (IC50) was put at 0.014 µM.

For `CNC(=O)c1ccc(CNC(=O)c2nn(C(C)C)c3c2CN(c2ncc(N4CCCC4=O)cn2)C[C@@H]3C)cc1` [Example 490, (S)-1-isopropyl-7-methyl-N-(4-(methylcarbamoyl)benzyl)-5-(5-(2-oxopyrrolidin-1-yl)pyrimidin-2-yl)-4,5,6,7-tetrahydro-1H-pyrazolo[4,3-c]pyridine-3-carboxamide], the EC50 on STAT6 (setting [4]) stood at 0.013 µM. The molecule also returned an IC50 in assay [1] (setting [5]) of 0.05 µM.

On to `CC(C)n1nc(C(=O)NCc2ccc(NC(=O)C3CCN(C)CC3)c(F)c2)c2c1[C@@H](C)CN(c1ccc(C(=O)N(C)C)cn1)C2` [Example 587, (S)-5-(5-(dimethylcarbamoyl)pyridin-2-yl)-N-(3-fluoro-4-(1-methylpiperidine-4-carboxamido)benzyl)-1-isopropyl-7-methyl-4,5,6,7-tetrahydro-1H-pyrazolo[4,3-c]pyridine-3-carboxamide], for which the EC50 on STAT6 (setting [4]) was 0.014 µM. In addition, in assay [1] (setting [6]), the IC50 came out at 0.122 µM.

On to `CN(C)C(=O)Nc1ccc(CNC(=O)c2nn(C)c3c2CC(c2ccc(C(=O)N(C)C)cc2)CC3)cc1` (racemic) [Example 26, rac-(R)-5-(4-(Dimethylcarbamoyl)phenyl)-N-(4-(3,3-dimethylureido)benzyl)-1-methyl-4,5,6,7-tetrahydro-1H-indazole-3-carboxamide], for which the EC50 on STAT6 (setting [2]) came to 0.069 µM. In assay [1] (setting [3]), this molecule registered an IC50 of 0.561 µM.

For the molecule `CC(C)n1nc(C(=O)NCc2ccc(NC(=O)N(C)C)cc2)c2c1CCN(c1ccc(N3CCC4(CC4)C3=O)cn1)C2` [Example 65, N-(4-(3,3-dimethylureido)benzyl)-1-isopropyl-5-(5-(4-oxo-5-azaspiro[2.4]heptan-5-yl)pyridin-2-yl)-4,5,6,7-tetrahydro-1H-pyrazolo[4,3-c]pyridine-3-carboxamide], the EC50 at STAT6 (setting [2]) came out at 0.208 µM. Further, inhibition in assay [1] (setting [3]) was half-maximal at 28.1 µM (IC50).

With `CCn1nc(C(=O)NCc2ccc(NC(=O)N(C)C)cc2)c2c1[C@H](C)[C@@H](C)N(c1ncc(C(=O)N(C)C)cn1)C2` (single isomer, unassigned) [Example 446], the EC50 on STAT6 (setting [4]) was 0.015 µM. Also, the concentration for half-maximal inhibition (IC50) in assay [1] (setting [5]) is 0.08 µM.

With `CC(C)n1nc(C(=O)NCc2ccc(N)cc2)c2c1[C@@H](C)CN(c1ncc(C(=O)N(C)C)cn1)C2` [Example 491, (S)-N-(4-aminobenzyl)-5-(5-(dimethylcarbamoyl)pyrimidin-2-yl)-1-isopropyl-7-methyl-4,5,6,7-tetrahydro-1H-pyrazolo[4,3-c]pyridine-3-carboxamide], the EC50 on STAT6 (setting [4]) was 0.007 µM. Also, the IC50 in assay [1] (setting [5]) was 0.034 µM.

As for `CC1CCC(=O)N1c1ccc(N2CCc3c(c(C(=O)NCc4ccc(NC(=O)N(C)C)cc4)nn3C(C)C)C2)nc1` (stereo not drawn) [Example 56, N-(4-(3,3-dimethylureido)benzyl)-1-isopropyl-5-(5-(2-methyl-5-oxopyrrolidin-1-yl)pyridin-2-yl)-4,5,6,7-tetrahydro-1H-pyrazolo[4,3-c]pyridine-3-carboxamide], the EC50 on STAT6 (setting [2]) stood at 0.013 µM. Moreover, inhibition in assay [1] (setting [3]) was half-maximal at 0.369 µM (IC50).

As for `CC(C)n1nc(C(=O)NCc2ccc(NC(=O)N(C)C)cc2)c2c1CC(C(F)(F)F)N(c1ccc(C(=O)N(C)C)cn1)C2` (single isomer, unassigned) [Example 277, rel-(R or S)-5-(5-(dimethylcarbamoyl)pyridin-2-yl)-N-(4-(3,3-dimethylureido)benzyl)-1-isopropyl-6-(trifluoromethyl)-4,5,6,7-tetrahydro-1H-pyrazolo[4,3-c]pyridine-3-carboxamide], the EC50 at STAT6 (setting [4]) came out at 0.01 µM. In addition, it took 0.109 µM to reach half-maximal inhibition in assay [1] (human whole blood, IL-13 stimulated, 48 hours) (IC50).

As for `CC(C)n1nc(C(=O)NCc2ccc(NC(=O)N3CC4(CCN(C)CC4)C3)cc2)c2c1[C@@H](C)CN(c1ccc(-n3ccccc3=O)cn1)C2` [Example 634, (S)-1-isopropyl-7-methyl-N-(4-(7-methyl-2,7-diazaspiro[3.5]nonane-2-carboxamido)benzyl)-5-(2-oxo-2H-[1,3′-bipyridin]-6′-yl)-4,5,6,7-tetrahydro-1H-pyrazolo[4,3-c]pyridine-3-carboxamide], the EC50 on STAT6 (setting [4]) was found to be 0.004 µM. The IC50 in assay [1] (setting [6]) was 0.029 µM.

On to `CCOC(=O)Nc1ccc(CNC(=O)c2nn(C(C)C)c3c2CN(c2ccc(C(=O)N(C)C)cn2)C[C@@H]3C)cc1` [Example 497, ethyl (S)-(4-((5-(5-(dimethylcarbamoyl)pyridin-2-yl)-1-isopropyl-7-methyl-4,5,6,7-tetrahydro-1H-pyrazolo[4,3-c]pyridine-3-carboxamido)methyl)phenyl)carbamate], for which, at STAT6 (setting [4]), the half-maximal effective concentration (EC50) was found to be 0.001 µM. In assay [1] (setting [5]), the IC50 was determined as 0.016 µM.
